Data reported in US12653899B2, “Multi-targeted, tunable, sustained delivery of payloads to charged avascular tissues” (Massachusetts Institute of Technology, priority 2019, dated 2026).

System: human ankle cartilage explants treated with IL-1β
Assay: IL-1β cytokine challenge model, sGAG biosynthesis rate in human ankle cartilage explants
Type: cell-based
Details: for rescue of the biosynthesis loss caused by human IL-1β: days 6-8
Protocol: Cartilage was harvested from the ankles of a donor (Collins Grade 1) and a donor (Collins Grade 1). Cartilage explants were equilibrated in culture media for 2 days after harvest. […] These were cut down to 1 mm thickness and allowed to equilibrate for a further 2 days before experiments were set up. Human IL-1β was used to induce osteoarthritis-like changes in cartilage. Experiments were set up to identify IL-1β doses at which 40 nM of free IGF-1 can rescue the IL-1β induced biosynthesis loss in cartilage. A dose response experiment in which single doses of (+9GFP)-(GGGGS)4-(IGF-1) (SEQ ID NO: 7) and (+9GFP)-(EAAAK)3-(IGF-1) (SEQ ID NO: 8) were added along with 100 pg/ml human IL-1β was also set up.
Experimental groups (N=8 to 10 cartilage explants in each group): Untreated control (Ctrl in FIG. 6A and FIG. 6B), 10 pg/mL human IL-1β (10 pg/ml IL-1b in FIG. 6A and FIG. 6B), 10 pg/mL human IL-1β+40 nM IGF-1 (10 pg/ml IL-1b+40 nM IGF-1 in FIG. 6A and FIG. 6B), 100 pg/mL human IL-1β (100 pg/ml IL-1b in FIG. 6A and FIG. 6B), 100 pg/mL human IL-1β+40 nM IGF-1 (100 pg/ml IL-1b+40 nM IGF-1 in FIG. 6A and FIG. 6B), 500 pg/mL human IL-1β (500 pg/ml IL-1b in FIG. 6A and […]), 500 pg/mL human IL-1β+40 nM IGF-1 (500 pg/ml IL-1b+40 nM IGF-1 in FIG. 6A and FIG. 6B), 1000 pg/mL human IL-1β (1 ng/ml IL-1b in FIG. 6A and FIG. 6B), 1000 pg/mL human IL-1β+40 nM IGF-1 (1 ng/ml IL-1b+40 nM IGF-1 in FIG. 6A and FIG. 6B). Media changes were performed every 2 days and the experiment was terminated after 8 days.
Chondrocyte biosynthesis rate (primarily aggrecan synthesis) was measured between days 6 and 8 of the experiment using a 35S-sulfate radiolabel. Statistics: 1-way ANOVA with post-hoc Tukey's HSD test.
This experiment was set up with cartilage explants from the donor ankle. Experimental groups (N=8 to 10 cartilage explants in each group): Untreated control (Ctrl in FIG. 6C), Continuous human IL-1β control (100 pg/ml dose added with every media change) (IL-1b in FIG. 6C), Continuous human IL-1β+continuous free IGF-1 control (100 pg/ml human IL-1β and 40 nM free IGF-1 dose added with every media change) (IL-1b+IGF1 FIG. 6C), Continuous human IL-1β+(+9GFP)-(GGGGS)4-(IGF-1) (SEQ ID NO: 7) 500 nM single dose (100 pg/ml human IL-1β added with every media change; Single 500 nM fusion protein dose added on Day 0) (IL-1b+0.5 μM Flex-1 in FIG. 6C), Continuous human IL-1β+(+9GFP)-(GGGGS)4-(IGF-1) (SEQ ID NO: 7) 1 μM single dose (100 pg/ml human IL-1β added with every media change; Single 1 μM fusion protein dose added on Day 0) (IL-1b+1 μM Flex-1 in FIG. 6C), Continuous human IL-1β+(+9GFP)-(EAAAK)3-(IGF-1) (SEQ ID NO: 8) 500 nM single dose (100 pg/ml human IL-1β added with every media change; Single 500 nM fusion protein dose added on Day 0), Continuous human IL-1β+(+9GFP)-(EAAAK)3-(IGF-1) (SEQ ID NO: 8) 1 μM single dose (100 pg/ml human IL-1β added with every media change; Single 1 μM fusion protein dose added on Day 0) (IL-1b+1 μM Rig-1 in FIG. 6C).
Preliminary dose response experiments were performed to test the effects of human IL-1β (PeproTech, Rocky Hill, NJ) on human ankle cartilage. Ankle cartilage explants from two different donors (equilibrated in culture medium post-harvest) were cultured in serum-free low glucose medium (same composition as equilibration medium) and treated with continuous IL-1β doses ranging from 10 pg/ml to 1 ng/ml for 8 days. The experiments also included groups of explants that were treated with 300 ng/ml free IGF-1 at each dose level of IL-1β. Based on the results of these experiments, 100 pg/ml IL-1β was chosen as the dose used for the fusion protein dose response experiments. In these experiments, ankle and knee cartilage explants (equilibrated in culture medium post-harvest) were treated continuously with IL-1β and received single doses of fusion proteins (ranging from 39.2 nM to 2 μM) at the start of the experiments. […]

[1] = single 2 μM dose, 100 pg/ml IL-1β, 10-day experiment (FIG. 15B)

Substance | rescue of the biosynthesis loss caused by human IL-1β (both dose levels (single 500 nM and 1 μM), 100 pg/ml human IL-1β, donor) | rescue of the loss of biosynthesis caused by IL-1β (single 1 μM dose, 100 pg/ml IL-1β, 7-day experiment (FIG. 15A)) | rescue of the loss of biosynthesis caused by IL-1β [1] | rescue of the biosynthesis loss caused by human IL-1β (40 nM free IGF-1, 100 pg/ml human IL-1β) | rescue of the biosynthesis loss caused by human IL-1β (40 nM free IGF-1, 500 pg/ml and 1000 pg/ml human IL-1β) | biosynthesis rate versus untreated control (300 ng/ml IGF-1 + 10 pg/ml human IL-1β, both donors) | biosynthesis rate versus untreated control (300 ng/ml IGF-1 + 100 pg/ml human IL-1β, both donors) | biosynthesis rate versus untreated control (300 ng/ml IGF-1 + 500 pg/ml or 1 ng/ml human IL-1β, donor) | rescue of biosynthesis loss (continuous free IGF-1 300 ng/ml, 100 pg/ml IL-1β, 7-day and 10-day experiments) | rescue of biosynthesis loss (continuous free IGF-1, human IL-1β 1 ng/ml) | rescue of the loss of biosynthesis caused by IL-1β (single 1 μM dose, 100 pg/ml IL-1β, 10-day experiment (FIG. 15B)) | rescue of the loss of biosynthesis caused by IL-1β (single 2 μM dose, 100 pg/ml IL-1β, 7-day experiment (FIG. 15A))
(+9GFP)-(EAAAK)3-(IGF-1): fusion protein of +9 GFP and human IGF-1 with rigid (EAAAK)3 linker, SEQ ID NO: 8 | able to rescue | partial rescue | partially rescued | – | – | – | – | – | – | – | – | –
IGF-1: free recombinant human IGF-1 (PeproTech), pro-anabolic growth factor used as the positive control | – | – | – | completely rescue | partial rescue | surpassed the untreated control biosynthesis | not statistically significantly different from the untreated control | significantly lower biosynthesis compared to the untreated control | complete rescue | could not rescue | – | –
(+9GFP)-(GGGGS)4-(IGF-1): fusion protein of +9 GFP and human IGF-1 with flexible (GGGGS)4 linker, SEQ ID NO: 7 | – | – | partially rescued | – | – | – | – | – | – | – | partially rescued | completely rescue
